Measurements: patent US5179085A, “N-substituted α-amino acids and derivatives thereof having pharmaceutical activity” (Warner-Lambert Company, priority 1991, dated 1993)
Structures can show the parent of a compound that is named as a salt.

Columns and labels:
[1] = system: glutamate-induced [Ca^++ ] influx; assay: Inhibition of glutamate-induced [Ca++] influx (GCI); type: cell-based
Protocol: (§1) Thus, the compounds of Formula I were tested in vitro for their ability to block NMDA receptors in a binding assay with [^3 H]3-(2-carboxypiperazin-4-yl)propyl-1-phosphonic acid ([^3 H]CPP) carried out essentially by a method previously described by Murphy, D. E., et al, Journal of Pharmacology and Experimental Therapeutics, Volume 240, pp 778-784 (1987); and for their ability to inhibit glutamate-induced [Ca^++ ] influx (GCI) carried out essentially by a method previously described by Marcoux, F. W., et al, "Sigma and Phencyclidine like Compounds as Molecular Probes in Biology", pp 735-746, Domino, E. F. and J. N. Kamenka, eds., NPP Books, Ann Arbor, Michigan, 1988 and Choi, D. W., et al, Journal of Neuroscience, Volume 8, pp 185-196 (1988). The aforementioned lest methods are incorporated herein by reference.

[2] = target: NMDA receptors; assay: [3H]CPP NMDA receptor binding assay; settings: for IC50: [3H]CPP displacement; for % Inhibition (10^-4 M): at 10^-4 M
Protocol: as §1

SMILES	IC50 [1] [µM]	IC50 [2] [nM]	% Inhibition (10^-4 M) [2] [%]
O=C(O)CNCc1ccc(CP(=O)(O)O)cc1 [Example 8h, N-[[4-(Phosphonomethyl)phenyl]methyl]glycine, monohydrochloride]	120	5200	
O=C(O)CNCCC=CP(=O)(O)O (mixture of isomers) [Example 10a, N-[4-Phosphono-3-butenyl)glycine, diammonium salt. (Mixture of E and Z isomers)]		2450	
O=C(O)CNCC=CCP(=O)(O)O [Example 8o, N-(4-Phosphono-2-butenyl)glycine, monohydrochloride]	18	1200	
O=C(O)CNCCc1cccc(CP(=O)(O)O)c1 [Example 8g, N-[2-[3-(Phosphonomethyl)phenyl]ethyl] glycine, monohydrochloride]			86
CC(NCC=CCP(=O)(O)O)C(=O)O.Cl (racemic) [Example 8p, N-(4-Phosphono-2-butenyl)-DL-alanine, monohydrochloride]			58
O=C(O)CNCc1cccc(CP(=O)(O)O)c1 [Example 8d, N-[[3-(Phosphonomethyl)phenyl]methyl]glycine, hydrochloride]	79	2240	
